Source: US12077503B2, “Substituted cyclic amides and their use as herbicides” (FMC CORPORATION, priority 2015, dated 2024)

What was measured:
Assay type in all cases: in vivo
[1] = test system: ducksalad (Heteranthera limosa); assay: Test B flooded paddy test; settings: Heteranthera limosa, 250 g ai/ha, Flood; 0 to 100 scale where 0 is no effect and 100 is complete control; read-out: Ducksalad plant response rating
Outline: (§1)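 Rating scale 0–100 (visual, vs untreated controls) after a 13–15 d greenhouse period; application to the flood layer, 3 cm above soil and maintained; plants at 2-leaf stage when treated.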

rice (Oryra sativa) = assay: Test B flooded paddy test; settings: Oryza sativa, 250 g ai/ha, Flood; 0 to 100 scale where 0 is no effect and 100 is complete control; read-out: Rice plant response rating
Outline: as §1

[2] = test system: sedge, umbrella (small-flower umbrella sedge, Cyperus difformis); assay: Test B flooded paddy test; settings: Cyperus difformis, 250 g ai/ha, Flood; 0 to 100 scale where 0 is no effect and 100 is complete control; read-out: Sedge, Umbrella plant response rating
Outline: as §1

[3] = test system: barnyardgrass (Echinochloa crus-galli); assay: Test B flooded paddy test; settings: Echinochloa crus-galli, 250 g ai/ha, Flood; 0 to 100 scale where 0 is no effect and 100 is complete control; read-out: Barnyardgrass plant response rating
Outline: as §1

[4] = test system: ragweed (common ragweed, Ambrosia elatior); assay: Test A preemergence; settings: Ambrosia artemisiifolia, pre-emergence, 240 h, 0 to 100 scale where 0 is no effect and 100 is complete control, read-out: Ragweed plant response rating
Outline: (§2)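 Visual injury, scored on a 0–100 scale relative to untreated controls, was recorded about 10 d after application. Treatments were a preemergence soil spray over planted seeds or a postemergence spray on plants at the one- to two-leaf stage, 2 to 10 cm tall, all in loam soil–sand blend in the greenhouse.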

[5] = test system: pigweed (Amaranthus retroflexus); assay: Test A preemergence; settings: Amaranthus retroflexus, pre-emergence, 240 h, 0 to 100 scale where 0 is no effect and 100 is complete control, read-out: Pigweed plant response rating
[6] = test system: ryegrass, Italian (Italian ryegrass, Lolium multiflorum); assay: Test A preemergence; settings: Lolium multiflorum, pre-emergence, 240 h, 0 to 100 scale where 0 is no effect and 100 is complete control, read-out: Ryegrass, Italian plant response rating
Outline: as §2

Kochia (Kochia scoparia) [7] = assay: Test A preemergence; settings: Bassia scoparia, pre-emergence, 240 h, 0 to 100 scale where 0 is no effect and 100 is complete control, read-out: Kochia plant response rating
Outline: as §2

[8] = test system: barnyardgrass (Echinochloa crus-galli); assay: Test A preemergence; settings: Echinochloa crus-galli, pre-emergence, 240 h, 0 to 100 scale where 0 is no effect and 100 is complete control, read-out: Barnyardgrass plant response rating
Outline: as §2

[9] = test system: giant foxtail (Setaria faberii); assay: Test A preemergence; settings: Setaria faberi, pre-emergence, 240 h, 0 to 100 scale where 0 is no effect and 100 is complete control, read-out: Foxtail, Giant plant response rating
Outline: as §2

[10] = test system: ragweed (common ragweed, Ambrosia elatior); assay: Test A postemergence; settings: Ambrosia artemisiifolia, post-emergence, 240 h
Outline: as §2

[11] = test system: pigweed (Amaranthus retroflexus); assay: Test A postemergence; settings: Amaranthus retroflexus, post-emergence, 240 h
Outline: as §2

[12] = test system: ryegrass, Italian (Italian ryegrass, Lolium multiflorum); assay: Test A postemergence; settings: Lolium multiflorum, post-emergence, 240 h
Outline: as §2

Kochia (Kochia scoparia) [13] = assay: Test A postemergence; settings: Bassia scoparia, post-emergence, 240 h
Outline: as §2

[14] = test system: wheat (Triticum aestivum); assay: Test A postemergence; settings: Triticum aestivum, post-emergence, 240 h
Outline: as §2

corn (Zea mays) = assay: Test A postemergence; settings: Zea mays, post-emergence, 240 h
Outline: as §2

[15] = test system: barnyardgrass (Echinochloa crus-galli); assay: Test A postemergence; settings: Echinochloa crus-galli, post-emergence, 240 h
Outline: as §2

[16] = test system: Galium (catchweed bedstraw, Galium aparine); assay: Test A postemergence; settings: Galium, post-emergence, 240 h
Outline: as §2

[17] = test system: giant foxtail (Setaria faberii); assay: Test A postemergence; settings: Setaria faberi, post-emergence, 240 h
Outline: as §2

[18] = test system: blackgrass (Alopecurus myosuroides); assay: Test A postemergence; settings: Alopecurus myosuroides, post-emergence, 240 h
Outline: as §2

[19] = 125 g ai/ha, preemergence, approx. 10 d

Q: Which results are given for CSc1ccccc1NC(=O)[C@H]1C(=O)N(C)C[C@@H]1c1cc(C(F)F)cs1 [Compound 1088]?
A: pest or weed control at 250 g/ha [1]: 75%; pest or weed control at 250 g/ha (rice (Oryra sativa)): 0%; pest or weed control at 250 g/ha [2]: 0%; pest or weed control at 250 g/ha [3]: 30%; pest or weed control at 31 g/ha ([4]; 31 g ai/ha, Preemergence): 0%; pest or weed control at 125 g/ha [4, 19]: 0%; pest or weed control at 31 g/ha ([5]; 31 g ai/ha, Preemergence): 0%; pest or weed control at 125 g/ha [5, 19]: 0%; pest or weed control at 31 g/ha ([6]; 31 g ai/ha, Preemergence): 0%; pest or weed control at 125 g/ha [6, 19]: 0%; pest or weed control at 31 g/ha (Kochia (Kochia scoparia) [7]; 31 g ai/ha, Preemergence): 30%; pest or weed control at 125 g/ha (Kochia (Kochia scoparia) [7]; [19]): 20%; pest or weed control at 31 g/ha ([8]; 31 g ai/ha, Preemergence): 0%; pest or weed control at 125 g/ha [8, 19]: 30%; pest or weed control at 31 g/ha ([9]; 31 g ai/ha, Preemergence): 0%; pest or weed control at 125 g/ha [9, 19]: 100%; pest or weed control at 125 g/ha ([10]; 125 g ai/ha, postemergence, visual injury on 0 to 100 scale (0 no effect, 100 complete control), approx. 10 d, read-out: Ragweed plant response rating): 0%; pest or weed control at 31 g/ha ([10]; Postemergence, 31 g ai/ha, visual injury after approx. 10 d, 0 to 100 scale, 0 no effect, 100 complete control, read-out: Plant response rating, Ragweed): 0%; pest or weed control at 125 g/ha ([11]; 125 g ai/ha, postemergence, visual injury on 0 to 100 scale (0 no effect, 100 complete control), approx. 10 d, read-out: Pigweed plant response rating): 0%; pest or weed control at 31 g/ha ([11]; Postemergence, 31 g ai/ha, visual injury after approx. 10 d, 0 to 100 scale, 0 no effect, 100 complete control, read-out: Plant response rating, Pigweed): 0%; pest or weed control at 125 g/ha ([12]; 125 g ai/ha, postemergence, visual injury on 0 to 100 scale (0 no effect, 100 complete control), approx. 10 d, read-out: Ryegrass, Italian plant response rating): 0%; pest or weed control at 31 g/ha ([12]; Postemergence, 31 g ai/ha, visual injury after approx. 10 d, 0 to 100 scale, 0 no effect, 100 complete control, read-out: Plant response rating, Ryegrass, Italian): 0%; pest or weed control at 125 g/ha (Kochia (Kochia scoparia) [13]; 125 g ai/ha, postemergence, visual injury on 0 to 100 scale (0 no effect, 100 complete control), approx. 10 d, read-out: Kochia plant response rating): 0%; pest or weed control at 31 g/ha (Kochia (Kochia scoparia) [13]; Postemergence, 31 g ai/ha, visual injury after approx. 10 d, 0 to 100 scale, 0 no effect, 100 complete control, read-out: Plant response rating, Kochia): 0%; plant injury at 125 g/ha ([14]; 125 g ai/ha, postemergence, visual injury on 0 to 100 scale (0 no effect, 100 complete control), approx. 10 d, read-out: Wheat plant response rating): 0%; plant injury at 31 g/ha ([14]; Postemergence, 31 g ai/ha, visual injury after approx. 10 d, 0 to 100 scale, 0 no effect, 100 complete control, read-out: Plant response rating, Wheat): 0%; plant injury at 125 g/ha (corn (Zea mays); 125 g ai/ha, postemergence, visual injury on 0 to 100 scale (0 no effect, 100 complete control), approx. 10 d, read-out: Corn plant response rating): 0%; Corn plant response rating (crop injury, 0 = no effect, 100 = complete kill) at 31 g/ha (corn (Zea mays); Postemergence, 31 g ai/ha, visual injury after approx. 10 d, 0 to 100 scale, 0 no effect, 100 complete control): 0%; pest or weed control at 125 g/ha ([15]; 125 g ai/ha, postemergence, visual injury on 0 to 100 scale (0 no effect, 100 complete control), approx. 10 d, read-out: Barnyardgrass plant response rating): 30%; pest or weed control at 31 g/ha ([15]; Postemergence, 31 g ai/ha, visual injury after approx. 10 d, 0 to 100 scale, 0 no effect, 100 complete control, read-out: Plant response rating, Barnyardgrass): 0%; pest or weed control at 125 g/ha ([16]; 125 g ai/ha, postemergence, visual injury on 0 to 100 scale (0 no effect, 100 complete control), approx. 10 d, read-out: Galium plant response rating): 30%; pest or weed control at 31 g/ha ([16]; Postemergence, 31 g ai/ha, visual injury after approx. 10 d, 0 to 100 scale, 0 no effect, 100 complete control, read-out: Plant response rating, Galium): 20%; pest or weed control at 125 g/ha ([17]; 125 g ai/ha, postemergence, visual injury on 0 to 100 scale (0 no effect, 100 complete control), approx. 10 d, read-out: Foxtail, Giant plant response rating): 20%; pest or weed control at 31 g/ha ([17]; Postemergence, 31 g ai/ha, visual injury after approx. 10 d, 0 to 100 scale, 0 no effect, 100 complete control, read-out: Plant response rating, Foxtail, Giant): 0%; pest or weed control at 125 g/ha ([18]; 125 g ai/ha, postemergence, visual injury on 0 to 100 scale (0 no effect, 100 complete control), approx. 10 d, read-out: Blackgrass plant response rating): 0%; pest or weed control at 31 g/ha ([18]; Postemergence, 31 g ai/ha, visual injury after approx. 10 d, 0 to 100 scale, 0 no effect, 100 complete control, read-out: Plant response rating, Blackgrass): 0%
